Laboratory results published in publication PMC3520603 (Journal of biomolecular screening, 2012).
Where a name gives a salt, the structure may show the parent alone. Read-outs that look alike come from different tables or passages of the source.

Tests used:
Format in all cases: binding
[1] = target: T1, RVFV nucleocapsid N protein (Rift valley fever virus, UniProt P21700)
[2] = target: T1, RVFV nucleocapsid N protein; assay: biochemical
[3] = target: T1, RVFV nucleocapsid N protein; assay: biochemical; remark: listed apart in the source

T1 sequence (P21700 whole entry, looked up): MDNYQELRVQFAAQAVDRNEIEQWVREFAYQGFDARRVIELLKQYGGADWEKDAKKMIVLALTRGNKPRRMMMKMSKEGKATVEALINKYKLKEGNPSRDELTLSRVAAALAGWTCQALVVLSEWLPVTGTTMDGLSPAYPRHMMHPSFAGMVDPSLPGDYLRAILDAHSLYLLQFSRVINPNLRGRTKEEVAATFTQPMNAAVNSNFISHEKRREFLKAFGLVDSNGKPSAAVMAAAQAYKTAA

Br.CN=c1nc(-c2ccccc2)n(-c2ccccc2)s1 [S 4063]
Percent Inhibition HTS [1]: 50.3%
Avg. Hill slope [2]: −1.64
IC50 [2]: 6.7 ± 2.9 µM

CCN(CC)CCCC(C)Nc1c2ccc(Cl)cc2nc2ccc(OC)cc12 (stereo not shown) [quinacrine dihydrochloride]
Percent Inhibition HTS [1]: 65.7%
Avg. Hill slope [3]: −2.99
IC50 [3]: 162 ± 26 µM

Cc1ccc(C(=O)Nc2ccc(S(=O)(=O)O)c3cc(S(=O)(=O)O)cc(S(=O)(=O)O)c23)cc1NC(=O)c1cccc(NC(=O)Nc2cccc(C(=O)Nc3cc(C(=O)Nc4ccc(S(=O)(=O)O)c5cc(S(=O)(=O)O)cc(S(=O)(=O)O)c45)ccc3C)c2)c1 [suramin sodium salt]
Percent Inhibition HTS [1]: 93.3%
Avg. Hill slope [2]: −2.76
IC50 [2]: 16.3 ± 7.3 µM

CC[C@@]1(O)C(=O)OCc2c1cc1n(c2=O)Cc2cc3c(CN(C)C)c(O)ccc3nc2-1 [topotecan]
Percent Inhibition HTS [1]: 85.9%
